The structures appear in SMILES notation.

Series [1] in a line: 4 hr in-vivo study: meloxicam plasma concentration after oral delivery to rats. The following applies: rat.
From the text: Male Sprague-Dawley rats, 250-300 g, received with a surgically implanted jugular catheter in place from (Harlan or Taconic Laboratories, USA). Animals were housed one per polycarbonate cage utilizing individual cage cards, with free access to food and water in accordance with NIH guidelines. Animals were quarantined at least 24 hrs after arrival prior to use and patency of the implanted catheter determined on the day of the test. Environmental controls for the animal room were set to maintain 18 to 26° C., a relative humidity of 30 to 70%, a minimum of 10 air changes/hour, and a 12-hour light/12-hour dark cycle. […] Each rat was weighed and the dose volume adjusted accordingly so that the effect of weight variability on results of study was eliminated and that each rat received 1 mg/kg dose.
Briefly, using a gradient elution with a Waters Symmetry C18 column (Waters Inc. USA), LCMS with selective reaction monitoring, protein precipitation of the plasma sample using acetonitrile where an LOQ of 50 ng/ml was achieved. Pharmacokinetic parameters were calculated from individual animal samples using appropriate software (PK Solutions 2.0, Summit Research Services, Montrose, Calif., USA).
Series [2] in a line: 24 hr in-vivo study: meloxicam plasma concentration and pharmacokinetics after oral (gavage) administration to male rats. The conditions noted are these: male rats, 1 mg/kg oral; for AUC (area under the plasma concentration-time curve at 24 h) / Cmax (peak plasma concentration) / F (bioavailability): mean N = 5; for Time to Reach 0.59 μg/ml: calculated by interpolation of time vs. concentration data. An excerpt: Male Sprague-Dawley rats, 250-300 g, received with a surgically implanted jugular catheter in place from (Harlan or Taconic Laboratories, USA). Animals were housed one per polycarbonate cage utilizing individual cage cards, with free access to food and water in accordance with NIH guidelines. Animals were quarantined at least 24 hrs after arrival prior to use and patency of the implanted catheter determined on the day of the test. Environmental controls for the animal room were set to maintain 18 to 26° C., a relative humidity of 30 to 70%, a minimum of 10 air changes/hour, and a 12-hour light/12-hour dark cycle. Rats historically have been used in safety evaluation and PK screening studies and are recommended by appropriate regulatory agencies. […] Each rat was weighed and the dose volume adjusted accordingly so that the effect of weight variability on results of study was eliminated and that each rat received 1 mg/kg dose.
Pharmacokinetic parameters were calculated from individual animal samples using appropriate software (PK Solutions 2.0, Summit Research Services, Montrose, Calif., USA).

As for `Cc1cnc(NC(=O)C2=C(O)c3ccccc3S(=O)(=O)N2C)s1.O=C(O)/C=C\C(=O)O` [Cocrystal 21, Meloxicam:Maleic Acid Cocrystal (1:1)], the meloxicam plasma concentration in series [1] (time 0 min) is 0.3 µg/mL; in series [1] (time 15 min), 19.77 µg/mL; in series [1] (time 30 min), 26.13 µg/mL; in series [1] (time 45 min), 31.19 µg/mL; in series [1] (time 60 min), 32.84 µg/mL; in series [1] (time 120 min), 35.02 µg/mL. Also, the meloxicam plasma concentration was determined as 42.12 µg/mL in series [1] (time 240 min); 0.62 µg/mL in series [2] (N = 5, 0.25 hour); 0.72 µg/mL in series [2] (N = 5, 0.5 hour). Further, in series [2], the “AUC (area under the plasma concentration-time curve at 24 h)” value (“AUC” for short) was 25300 ng·h/mL. The “Cmax (peak plasma concentration)” value in series [2] turned out to be 1490 ng/mL. Besides, in series [2], the “F (bioavailability)” value is listed as 39.8%. For the same molecule, in series [2], the “Time to Reach 0.59 μg/ml” value is recorded as 13.4 min.
Regarding `Cc1cnc(NC(=O)C2=C(O)c3ccccc3S(=O)(=O)N2C)s1.O=C(O)CC(=O)O` [Cocrystal 22, Meloxicam:Malonic Acid Cocrystal (1:1)], the meloxicam plasma concentration is 0 µg/mL in series [1] (time 0 min); 7.51 µg/mL in series [1] (time 15 min); 22.15 µg/mL in series [1] (time 30 min); 27.00 µg/mL in series [1] (time 45 min); 29.33 µg/mL in series [1] (time 60 min); 29.57 µg/mL in series [1] (time 120 min).
For `Cc1cnc(NC(=O)C2=C(O)c3ccccc3S(=O)(=O)N2C)s1.O=C(O)CO` [Cocrystal 28, Meloxicam:Glycolic Acid Cocrystal (1:1)], the meloxicam plasma concentration in series [1] (time 0 min) was 0 µg/mL; in series [1] (time 15 min) it was 6.25 µg/mL; in series [1] (time 30 min), 16.88 µg/mL; in series [1] (time 45 min), 22.66 µg/mL; in series [1] (time 60 min) it was 27.26 µg/mL; in series [1] (time 120 min), 20.77 µg/mL. The meloxicam plasma concentration in series [1] (time 240 min) was 34.50 µg/mL.
With `Cc1cnc(NC(=O)C2=C(O)c3ccccc3S(=O)(=O)N2C)s1.Cc1cnc(NC(=O)C2=C(O)c3ccccc3S(=O)(=O)N2C)s1.O=C(O)C[C@H](O)C(=O)O` [Cocrystal 71, Meloxicam: L-Malic Acid Cocrystal (2:1)], the meloxicam plasma concentration in series [1] (time 0 min) stood at 0 µg/mL; in series [1] (time 15 min), 24.98 µg/mL; in series [1] (time 30 min) it was 32.05 µg/mL; in series [1] (time 45 min) it was 30.38 µg/mL; in series [1] (time 60 min), 30.95 µg/mL; in series [1] (time 240 min) it was 38.59 µg/mL.
Turning to `Cc1cnc(NC(=O)C2=C(O)c3ccccc3S(=O)(=O)N2C)s1.O=C(O)c1ccc2ccccc2c1O` [Cocrystal 76, Meloxicam: 1-Hydroxy-2-Naphthoic Acid Cocrystal (1:1)], the meloxicam plasma concentration in series [1] (time 0 min) amounted to 0 µg/mL; in series [1] (time 30 min), 39.24 µg/mL; in series [1] (time 45 min), 45.29 µg/mL; in series [1] (time 60 min), 44.60 µg/mL; in series [1] (time 120 min), 46.24 µg/mL; in series [1] (time 240 min), 52.24 µg/mL. Further, the meloxicam plasma concentration amounted to 2.1 µg/mL in series [2] (N = 5, 0.25 hour) and 2.49 µg/mL in series [2] (N = 5, 0.5 hour). In series [2], the “AUC” value came to 62500 ng·h/mL. For the same molecule, in series [2], the “Cmax (peak plasma concentration)” value turned out to be 4150 ng/mL. Moreover, in series [2], the “F (bioavailability)” value was determined as 98.3%. In series [2], the “Time to Reach 0.59 μg/ml” value is given as 6.5 min.
Turning to `Cc1cnc(NC(=O)C2=C(O)c3ccccc3S(=O)(=O)N2C)s1.O=C(O)c1ccccc1O` [Cocrystal 87, Meloxicam:Salicylic Acid Cocrystal Form I (1:1)], the meloxicam plasma concentration in series [1] (time 0 min) is 0 µg/mL; in series [1] (time 15 min, listed as 87), 23.61 µg/mL; in series [1] (time 30 min, listed as 87), 26.76 µg/mL; in series [1] (time 45 min, listed as 87), 28.85 µg/mL; in series [1] (time 60 min, listed as 87) it was 26.79 µg/mL; in series [1] (time 120 min, listed as 87), 34.16 µg/mL. The same molecule returned a meloxicam plasma concentration in series [1] (time 240 min, listed as 87) of 36.54 µg/mL.
As for `Cc1cnc(NC(=O)C2=C(O)c3ccccc3S(=O)(=O)N2C)s1.O=C(O)c1ccccc1O` [Cocrystal 88, Meloxicam:Salicylic Acid Cocrystal Form III (1:1)], the meloxicam plasma concentration was 42.10 µg/mL in series [1] (time 15 min); 38.19 µg/mL in series [1] (time 30 min); 40.48 µg/mL in series [1] (time 45 min); 41.18 µg/mL in series [1] (time 60 min); 40.50 µg/mL in series [1] (time 120 min); 49.13 µg/mL in series [1] (time 240 min). The meloxicam plasma concentration in series [2] (N = 5, 0.25 hour) worked out at 0.7675 µg/mL; in series [2] (N = 5, 0.5 hour), 0.8975 µg/mL. Also, the “AUC” value in series [2] turned out to be 29600 ng·h/mL. Also, the “Cmax (peak plasma concentration)” value in series [2] is 2230 ng/mL. The “F (bioavailability)” value in series [2] was determined as 46.5%. The “Time to Reach 0.59 μg/ml” value in series [2] is given as 11.3 min.
For `Cc1cnc(NC(=O)C2=C(O)c3ccccc3S(=O)(=O)N2C)s1.O=C(O)CCCC(=O)O` [Cocrystal 92, Meloxicam:Glutaric Acid Cocrystal (1:1)], the meloxicam plasma concentration in series [1] (time 0 min) stood at 0 µg/mL; in series [1] (time 15 min) it was 5.61 µg/mL; in series [1] (time 30 min), 13.16 µg/mL; in series [1] (time 45 min) it was 19.11 µg/mL; in series [1] (time 60 min), 27.72 µg/mL; in series [1] (time 120 min), 35.94 µg/mL. For the same molecule, the meloxicam plasma concentration in series [1] (time 240 min) is 55.35 µg/mL.
`Cc1cnc(NC(=O)C2=C(O)c3ccccc3S(=O)(=O)N2C)s1.Cc1cnc(NC(=O)C2=C(O)c3ccccc3S(=O)(=O)N2C)s1.O=C(O)/C=C/C(=O)O` [Cocrystal 143, Meloxicam:Fumaric Acid Cocrystal (2:1)]: the meloxicam plasma concentration is 0 µg/mL in series [1] (time 0 min); 3.33 µg/mL in series [1] (time 15 min); 6.69 µg/mL in series [1] (time 30 min); 9.69 µg/mL in series [1] (time 45 min); 13.39 µg/mL in series [1] (time 60 min); 20.93 µg/mL in series [1] (time 120 min). In series [1] (time 240 min), this molecule registered a meloxicam plasma concentration of 30.23 µg/mL.
In the case of `Cc1cnc(NC(=O)C2=C(O)c3ccccc3S(=O)(=O)N2C)s1.Cc1cnc(NC(=O)C2=C(O)c3ccccc3S(=O)(=O)N2C)s1.O=C(O)CCCCC(=O)O` [Cocrystal 152, Meloxicam:Adipic Acid Cocrystal (2:1)], the meloxicam plasma concentration in series [1] (time 0 min) was 0 µg/mL; in series [1] (time 15 min) it was 9.72. μg/ml; in series [1] (time 30 min), 22.85 µg/mL; in series [1] (time 45 min), 28.37 µg/mL; in series [1] (time 60 min), 30.09 µg/mL; in series [1] (time 120 min), 38.23 µg/mL. This molecule also showed a meloxicam plasma concentration in series [1] (time 240 min) of 47.85 µg/mL.
On to `Cc1cnc(NC(=O)C2=C(O)c3ccccc3S(=O)(=O)N2C)s1.O=C(O)c1ccccc1` [Cocrystal 153, Meloxicam:Benzoic Acid Cocrystal (1:1)], for which the meloxicam plasma concentration worked out at 0 µg/mL in series [1] (time 0 min); 21.94 µg/mL in series [1] (time 15 min); 25.88 µg/mL in series [1] (time 30 min); 28.30 µg/mL in series [1] (time 45 min); 28.11 µg/mL in series [1] (time 60 min); 33.31 µg/mL in series [1] (time 120 min). Besides, the meloxicam plasma concentration in series [1] (time 240 min) came out at 42.51 µg/mL.
With `Cc1cnc(NC(=O)C2=C(O)c3ccccc3S(=O)(=O)N2C)s1.Cc1cnc(NC(=O)C2=C(O)c3ccccc3S(=O)(=O)N2C)s1.O=C(O)CC(O)C(=O)O` [Cocrystal 154, Meloxicam:DL-Malic Acid Cocrystal (2:1)], the meloxicam plasma concentration in series [1] (time 0 min) amounted to 0 µg/mL; in series [1] (time 15 min), 11.19 µg/mL; in series [1] (time 30 min) it was 16.59 µg/mL; in series [1] (time 45 min), 21.96 µg/mL; in series [1] (time 60 min), 24.90 µg/mL; in series [1] (time 120 min), 32.31 µg/mL. The same molecule had a meloxicam plasma concentration in series [1] (time 240 min) of 49.72 µg/mL.
Consider `Cc1cnc(NC(=O)C2=C(O)c3ccccc3S(=O)(=O)N2C)s1.O=C(O)CCc1ccccc1` [Cocrystal 164, Meloxicam:Hydrocinnamic Acid Cocrystal (1:1)], for which the meloxicam plasma concentration was 0 µg/mL in series [1] (time 0 min); 9.53 µg/mL in series [1] (time 15 min); 11.42 µg/mL in series [1] (time 30 min); 16.19 µg/mL in series [1] (time 45 min); 18.24 µg/mL in series [1] (time 60 min); 25.918 µg/mL in series [1] (time 120 min). This molecule also returned a meloxicam plasma concentration in series [1] (time 240 min) of 45.70 µg/mL.

Values taken from patent US8389512B2 (priority 2008, dated 2013).
